Blank lines part the entries; values can stand above or below the compound they belong to.
Tested on: 883617-216-R-J1-PDC complex spheroids, growth, % test/control
Experiment: Anticancer human tumor 883617-216-R-J1-PDC patient-derived bladder carcinoma cell line growth inhibition [AhR]
Details: for IC50: curve of first compound; for viability, T/C: stronger effect = lower value
Summary of the method: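 Agents were dosed in half-log steps down from roughly clinical Cmax, or from 10 microM where Cmax was unknown, alone and with AhR antagonists. Read-out: percent test/control growth of tumor spheroids containing HUVEC and MSC stromal cells.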

[1] = second compound 0.1 µM, first compound 0.0316 µM
[2] = second compound 0.1 µM, first compound 0.1 µM
[3] = second compound 0.316 µM, first compound 0.0316 µM
[4] = second compound 0.316 µM, first compound 0.1 µM
[5] = second compound 1 µM, first compound 0.0316 µM
[6] = second compound 1 µM, first compound 0.1 µM
[7] = second compound 3.16 µM, first compound 0.0316 µM
[8] = second compound 3.16 µM, first compound 0.1 µM
[9] = second compound 10 µM, first compound 0.0316 µM
[10] = second compound 10 µM, first compound 0.1 µM
[11] = second compound 0.1 µM, first compound 0.316 µM
[12] = second compound 0.1 µM, first compound 1 µM
[13] = second compound 0.1 µM, first compound 3.16 µM
[14] = second compound 0.1 µM, first compound 10 µM
[15] = second compound 0.316 µM, first compound 0.316 µM
[16] = second compound 0.316 µM, first compound 1 µM
[17] = second compound 0.316 µM, first compound 3.16 µM
[18] = second compound 0.316 µM, first compound 10 µM
[19] = second compound 1 µM, first compound 0.316 µM
[20] = second compound 1 µM, first compound 1 µM
[21] = second compound 1 µM, first compound 3.16 µM
[22] = second compound 1 µM, first compound 10 µM
[23] = second compound 3.16 µM, first compound 0.316 µM
[24] = second compound 3.16 µM, first compound 1 µM
[25] = second compound 3.16 µM, first compound 3.16 µM
[26] = second compound 3.16 µM, first compound 10 µM
[27] = second compound 10 µM, first compound 0.316 µM
[28] = second compound 10 µM, first compound 1 µM
[29] = second compound 10 µM, first compound 3.16 µM
[30] = second compound 10 µM, first compound 10 µM
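Note: exposure lasted 7 days after dosing on day 3 of spheroid growth.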

Compound: Cn1ncnc1C1c2n[nH]c(=O)c3cc(F)cc(c23)NC1c1ccc(F)cc1 (stereo not given) + CC(CO)NC(=O)c1cc(-c2ccc(Cl)cc2)nn(-c2cnn(C)c2)c1=O
IC50 (second compound 0.1 µM): > 100 nM
IC50 (second compound 0.316 µM): > 100 nM
IC50 (second compound 1 µM): > 100 nM
IC50 (second compound 3.16 µM): > 100 nM
IC50 (second compound 10 µM): > 100 nM
viability, T/C (second compound 0.1 µM, first compound 0.000316 µM): 72.7%
viability, T/C (second compound 0.1 µM, first compound 0.001 µM): 96.6%
viability, T/C (second compound 0.1 µM, first compound 0.00316 µM): 77.3%
viability, T/C (second compound 0.1 µM, first compound 0.01 µM): 57.7%
viability, T/C [1]: 55.6%
viability, T/C [2]: 93%
viability, T/C (second compound 0.316 µM, first compound 0.000316 µM): 90.4%
viability, T/C (second compound 0.316 µM, first compound 0.001 µM): 92.8%
viability, T/C (second compound 0.316 µM, first compound 0.00316 µM): 78.6%
viability, T/C (second compound 0.316 µM, first compound 0.01 µM): 75.8%
viability, T/C [3]: 86%
viability, T/C [4]: 98.7%
viability, T/C (second compound 1 µM, first compound 0.000316 µM): 59.7%
viability, T/C (second compound 1 µM, first compound 0.001 µM): 92.4%
viability, T/C (second compound 1 µM, first compound 0.00316 µM): 75.1%
viability, T/C (second compound 1 µM, first compound 0.01 µM): 59.8%
viability, T/C [5]: 87.6%
viability, T/C [6]: 89.9%
viability, T/C (second compound 3.16 µM, first compound 0.000316 µM): 77.3%
viability, T/C (second compound 3.16 µM, first compound 0.001 µM): 51%
viability, T/C (second compound 3.16 µM, first compound 0.00316 µM): 123%
viability, T/C (second compound 3.16 µM, first compound 0.01 µM): 82.8%
viability, T/C [7]: 50.2%
viability, T/C [8]: 69.2%
viability, T/C (second compound 10 µM, first compound 0.000316 µM): 78.6%
viability, T/C (second compound 10 µM, first compound 0.001 µM): 68.8%
viability, T/C (second compound 10 µM, first compound 0.00316 µM): 70.6%
viability, T/C (second compound 10 µM, first compound 0.01 µM): 72%
viability, T/C [9]: 55.7%
viability, T/C [10]: 80.9%

Compound: COc1cccc2c1C(=O)c1c(O)c3c(c(O)c1C2=O)CC(O)(C(=O)CO)CC3OC1CC(N)C(O)C(C)O1 (stereo not given) + Cc1ccccc1N=Nc1ccc(NC(=O)c2ccnn2C)c(C)c1
IC50 (second compound 0.1 µM): 284 nM
IC50 (second compound 0.316 µM): 255 nM
IC50 (second compound 1 µM): 339 nM
IC50 (second compound 3.16 µM): 258 nM
IC50 (second compound 10 µM): 380 nM
viability, T/C [1]: 66.5%
viability, T/C [2]: 60.6%
viability, T/C [11]: 48.4%
viability, T/C [12]: 22.7%
viability, T/C [13]: 0.11%
viability, T/C [14]: 0.14%
viability, T/C [3]: 67.5%
viability, T/C [4]: 61.3%
viability, T/C [15]: 47.5%
viability, T/C [16]: 16.7%
viability, T/C [17]: 0.12%
viability, T/C [18]: 0.15%
viability, T/C [5]: 56.8%
viability, T/C [6]: 63.4%
viability, T/C [19]: 51.5%
viability, T/C [20]: 16.5%
viability, T/C [21]: 0.12%
viability, T/C [22]: 0.65%
viability, T/C [7]: 66.5%
viability, T/C [8]: 56%
viability, T/C [23]: 48.7%
viability, T/C [24]: 11.9%
viability, T/C [25]: 0.12%
viability, T/C [26]: 0.5%
viability, T/C [9]: 58.6%
viability, T/C [10]: 57.3%
viability, T/C [27]: 57.8%
viability, T/C [28]: 8.97%
viability, T/C [29]: 0.18%
viability, T/C [30]: 0.21%

Continued, in another order:

IC50 (second compound 0.1 µM): > 300 nM
IC50 (second compound 0.316 µM): > 300 nM
IC50 (second compound 1 µM): > 300 nM
IC50 (second compound 3.16 µM): > 300 nM
IC50 (second compound 10 µM): > 300 nM
Compound: Nc1ncn(C2CC(O)C(CO)S2)c(=O)n1 (stereo not given) + Cc1cncc(-c2nc(NCCc3c[nH]c4ccccc34)c3ncn(C(C)C)c3n2)c1
viability, T/C (second compound 0.1 µM, first compound 0.000949 µM): 93.3%
viability, T/C (second compound 0.1 µM, first compound 0.003 µM): 88.9%
viability, T/C (second compound 0.1 µM, first compound 0.00949 µM): 94.6%
viability, T/C (second compound 0.1 µM, first compound 0.03 µM): 89.9%
viability, T/C (second compound 0.1 µM, first compound 0.0949 µM): 87.3%
viability, T/C (second compound 0.1 µM, first compound 0.3 µM): 81.9%
viability, T/C (second compound 0.316 µM, first compound 0.000949 µM): 95%
viability, T/C (second compound 0.316 µM, first compound 0.003 µM): 104%
viability, T/C (second compound 0.316 µM, first compound 0.00949 µM): 103%
viability, T/C (second compound 0.316 µM, first compound 0.03 µM): 90.7%
viability, T/C (second compound 0.316 µM, first compound 0.0949 µM): 91.7%
viability, T/C (second compound 0.316 µM, first compound 0.3 µM): 81.6%
viability, T/C (second compound 1 µM, first compound 0.000949 µM): 105%
viability, T/C (second compound 1 µM, first compound 0.003 µM): 119%
viability, T/C (second compound 1 µM, first compound 0.00949 µM): 106%
viability, T/C (second compound 1 µM, first compound 0.03 µM): 107%
viability, T/C (second compound 1 µM, first compound 0.0949 µM): 92.4%
viability, T/C (second compound 1 µM, first compound 0.3 µM): 94.8%
viability, T/C (second compound 3.16 µM, first compound 0.000949 µM): 82.8%
viability, T/C (second compound 3.16 µM, first compound 0.003 µM): 82.6%
viability, T/C (second compound 3.16 µM, first compound 0.00949 µM): 82.4%
viability, T/C (second compound 3.16 µM, first compound 0.03 µM): 88.2%
viability, T/C (second compound 3.16 µM, first compound 0.0949 µM): 76.7%
viability, T/C (second compound 3.16 µM, first compound 0.3 µM): 83.1%
viability, T/C (second compound 10 µM, first compound 0.000949 µM): 54.5%
viability, T/C (second compound 10 µM, first compound 0.003 µM): 62.4%
viability, T/C (second compound 10 µM, first compound 0.00949 µM): 59%
viability, T/C (second compound 10 µM, first compound 0.03 µM): 57.3%
viability, T/C (second compound 10 µM, first compound 0.0949 µM): 46.4%
viability, T/C (second compound 10 µM, first compound 0.3 µM): 61.5%

IC50 (second compound 0.1 µM): > 10000 nM
IC50 (second compound 0.316 µM): > 10000 nM
IC50 (second compound 1 µM): > 10000 nM
IC50 (second compound 3.16 µM): > 10000 nM
IC50 (second compound 10 µM): 68.8 nM
Compound: COc1cc(C2c3cc4c(cc3C(OC3OC5COC(C)OC5C(O)C3O)C3COC(=O)C23)OCO4)cc(OC)c1O (stereo not given) + Cc1cncc(-c2nc(NCCc3c[nH]c4ccccc34)c3ncn(C(C)C)c3n2)c1
viability, T/C [1]: 77.3%
viability, T/C [2]: 81.3%
viability, T/C [11]: 70%
viability, T/C [12]: 66.8%
viability, T/C [13]: 69.6%
viability, T/C [14]: 57.4%
viability, T/C [3]: 84.9%
viability, T/C [4]: 81.1%
viability, T/C [15]: 73.6%
viability, T/C [16]: 65.3%
viability, T/C [17]: 64.1%
viability, T/C [18]: 60.9%
viability, T/C [5]: 91.4%
viability, T/C [6]: 86.4%
viability, T/C [19]: 78.7%
viability, T/C [20]: 71.5%
viability, T/C [21]: 81.4%
viability, T/C [22]: 64.7%
viability, T/C [7]: 89.9%
viability, T/C [8]: 89%
viability, T/C [23]: 80.1%
viability, T/C [24]: 79%
viability, T/C [25]: 70%
viability, T/C [26]: 65.6%
viability, T/C [9]: 51.4%
viability, T/C [10]: 50.3%
viability, T/C [27]: 49.9%
viability, T/C [28]: 39.1%
viability, T/C [29]: 41.5%
viability, T/C [30]: 45.5%

IC50 (second compound 0.1 µM): 1060 nM
IC50 (second compound 0.316 µM): 1080 nM
IC50 (second compound 1 µM): 901 nM
IC50 (second compound 3.16 µM): 818 nM
IC50 (second compound 10 µM): 1140 nM
Compound: Nc1ccccc1NC(=O)c1ccc(CNC(=O)OCc2cccnc2)cc1 + Cc1ccccc1N=Nc1ccc(NC(=O)c2ccnn2C)c(C)c1
viability, T/C [1]: 102%
viability, T/C [2]: 103%
viability, T/C [11]: 77.5%
viability, T/C [12]: 51%
viability, T/C [13]: 23.3%
viability, T/C [14]: 1.52%
viability, T/C [3]: 85.7%
viability, T/C [4]: 95%
viability, T/C [15]: 86%
viability, T/C [16]: 49.5%
viability, T/C [17]: 18.6%
viability, T/C [18]: 1.3%
viability, T/C [5]: 87.6%
viability, T/C [6]: 88.5%
viability, T/C [19]: 76.7%
viability, T/C [20]: 44.8%
viability, T/C [21]: 20.1%
viability, T/C [22]: 1.53%
viability, T/C [7]: 80.2%
viability, T/C [8]: 84.7%
viability, T/C [23]: 70.6%
viability, T/C [24]: 44.8%
viability, T/C [25]: 16.6%
viability, T/C [26]: 1.32%
viability, T/C [9]: 79.5%
viability, T/C [10]: 76.6%
viability, T/C [27]: 72.4%
viability, T/C [28]: 51.9%
viability, T/C [29]: 25.4%
viability, T/C [30]: 2.23%
